Measured values published in PubChem BioAssay (NCI).
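A five-concentration, 48-hour dose response in 96-well plates underlies each endpoint, interpolated linearly between surrounding concentrations. GI50 = concentration required for 50% inhibition of growth. TGI denotes the concentration required for complete inhibition of growth.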

Key:
Test in all cases: growth of human tumour cells (NCI), 48 h
ACHN renal = system: ACHN renal
COLO 205 colon = system: COLO 205 colon
HCT-116 colon = system: HCT-116 colon
HOP-92 NSCLC = system: HOP-92 NSCLC
IGROV1 ovarian = system: IGROV1 ovarian
MALME-3M melanoma = system: MALME-3M melanoma
OVCAR-3 ovarian = system: OVCAR-3 ovarian
RPMI-8226 leukemia = system: RPMI-8226 leukemia
SK-MEL-5 melanoma = system: SK-MEL-5 melanoma
TK-10 renal = system: TK-10 renal

Compound | TGI (ACHN renal) | TGI (COLO 205 colon) | TGI (HCT-116 colon) | TGI (HOP-92 NSCLC) | TGI (IGROV1 ovarian) | TGI (MALME-3M melanoma) | TGI (OVCAR-3 ovarian) | TGI (RPMI-8226 leukemia) | TGI (SK-MEL-5 melanoma) | TGI (TK-10 renal) | GI50 (COLO 205 colon) | GI50 (HCT-116 colon) | GI50 (HOP-92 NSCLC) | GI50 (IGROV1 ovarian) | GI50 (MALME-3M melanoma) | GI50 (OVCAR-3 ovarian) | GI50 (RPMI-8226 leukemia) | GI50 (TK-10 renal) | GI50 (ACHN renal) | GI50 (SK-MEL-5 melanoma)
CCOP(=O)(Nc1ccc2oc(=O)c3ccccc3c2c1)OCC | > 100 µM | > 100 µM | > 100 µM | > 100 µM | > 100 µM | > 100 µM | > 100 µM | 98.2 µM | > 100 µM | > 100 µM | – | – | – | – | – | – | – | – | – | –
CO[C@@]12[C@@H]3NC3CN1C1=C(C(=O)C(N)=C(C)C1=O)[C@@H]2COC(N)=O (stereo partly specified) | 1.63 µM | 2.3 µM | 3.26 µM | 5.73 µM | 4 µM | 2.21 µM | 3.07 µM | 27.8 µM | 0.631 µM | 5.85 µM | 0.55 µM | 0.53 µM | 1.44 µM | 1.3 µM | 0.511 µM | 1.07 µM | 1.84 µM | 1.68 µM | – | –
N[C@@H]1CCCC[C@@H]1N.O=P([O-])([O-])CN(CP(=O)([O-])[O-])CP(=O)([O-])[O-].[Pt+2] | > 100 µM | > 100 µM | > 100 µM | > 100 µM | > 100 µM | > 100 µM | > 100 µM | > 100 µM | > 100 µM | > 100 µM | > 100 µM | > 100 µM | > 100 µM | > 100 µM | > 100 µM | > 100 µM | > 100 µM | > 100 µM | > 100 µM | > 100 µM
CCCCCCCCCCCCCCCCOC(=O)c1cc(O)cc(C(=O)OCCCCCCCCCCCCCCCC)c1 | > 100 µM | > 100 µM | > 100 µM | > 100 µM | > 100 µM | > 100 µM | > 100 µM | > 100 µM | > 100 µM | > 100 µM | – | – | – | – | – | – | – | – | – | –
O=C1c2ccccc2C(=O)c2nc3ccc(Cl)cc3cc21 | > 100 µM | > 100 µM | > 100 µM | > 100 µM | > 100 µM | > 100 µM | > 100 µM | > 100 µM | > 100 µM | > 100 µM | – | – | – | – | – | – | – | – | – | –
CCSC(SCC)=C1C(=O)N(c2ccccc2)N=C1C | 29.4 µM | 7.08 µM | 28.3 µM | 20.1 µM | 33.2 µM | 28.3 µM | 20.2 µM | 27 µM | 33.1 µM | 22.2 µM | – | – | – | – | – | – | – | – | – | –
COC(=O)/C(=N/NC(N)=O)C(C(=O)OC)C(=O)C(=O)Nc1ccc(Cl)cc1 (stereo unspecified) | > 100 µM | > 100 µM | > 100 µM | > 100 µM | > 100 µM | > 100 µM | > 100 µM | > 100 µM | > 100 µM | > 100 µM | – | – | – | – | – | – | – | – | – | –
COc1ccc(CCN=C2CCC(C(=O)NCCc3ccc(OC)c(OC)c3)N2)cc1OC (stereo unspecified) | > 100 µM | > 100 µM | > 100 µM | > 100 µM | > 100 µM | > 100 µM | > 100 µM | > 100 µM | > 100 µM | > 100 µM | – | – | – | – | – | – | – | – | – | –
COc1ccccc1NC(=O)C(CC(C(=O)Nc1ccccc1OC)/C(C)=N/Nc1ccc([N+](=O)[O-])cc1[N+](=O)[O-])/C(C)=N/Nc1ccc([N+](=O)[O-])cc1[N+](=O)[O-] (stereo unspecified) | > 100 µM | > 100 µM | > 100 µM | > 100 µM | > 100 µM | > 100 µM | > 100 µM | > 100 µM | > 100 µM | 60 µM | – | – | – | – | – | – | – | – | – | –
COc1cc(/C=C(\C#N)C(N)=C(C#N)C#N)cc(O)c1O | > 100 µM | > 100 µM | > 100 µM | > 100 µM | > 100 µM | > 100 µM | > 100 µM | > 100 µM | > 100 µM | > 100 µM | – | – | – | – | – | – | – | – | – | –
COc1nc(NC2OC(COC(C)=O)C(OC(C)=O)C(OC(C)=O)C2OC(C)=O)c(-c2csc(N)n2)c(=O)n1C (stereo unspecified) | > 100 µM | > 100 µM | > 100 µM | > 100 µM | > 100 µM | 78.8 µM | > 100 µM | > 100 µM | > 100 µM | > 100 µM | – | – | – | – | – | – | – | – | – | –
CC1(C)OC2C(COS(N)(=O)=O)SC(n3cnc4cncnc43)C2O1 (stereo unspecified) | > 100 µM | > 100 µM | > 100 µM | > 100 µM | > 100 µM | > 100 µM | > 100 µM | > 100 µM | > 100 µM | > 100 µM | > 100 µM | > 100 µM | > 100 µM | > 100 µM | > 100 µM | > 100 µM | > 100 µM | > 100 µM | > 100 µM | > 100 µM
O=C1CN(/N=C/c2ccc(-c3ccc(F)cc3)o2)C(=O)N1 | > 100 µM | > 100 µM | > 100 µM | 57.8 µM | > 100 µM | > 100 µM | > 100 µM | > 100 µM | > 100 µM | > 100 µM | – | – | – | – | – | – | – | – | – | –
CC(NC(=O)c1ccccc1)(C(=O)O)C(=O)O | > 100 µM | > 100 µM | > 100 µM | > 100 µM | > 100 µM | > 100 µM | > 100 µM | > 100 µM | > 100 µM | > 100 µM | – | – | – | – | – | – | – | – | – | –
O=c1cc(-c2ccccn2)[nH]c2ccc(Cl)cc12 | > 100 µM | > 100 µM | > 100 µM | > 100 µM | > 100 µM | 62.5 µM | > 100 µM | > 100 µM | > 100 µM | > 100 µM | – | 26 µM | – | – | – | 63.7 µM | – | – | – | 26.6 µM
CCCCCCCCCCCCCc1nn[nH]n1 | 42.2 µM | 36.6 µM | 31.7 µM | 29.3 µM | 41.1 µM | 33.5 µM | 32.6 µM | 64.2 µM | 32.5 µM | 43.7 µM | – | – | – | – | – | – | – | – | – | –
CC1CC[C@]2(C(=O)O)CCC3(C)C(=CCC4[C@@]5(C)CC[C@H](OS(=O)(=O)c6ccccc6)C(C)(C)C5CC[C@]43C)[C@@H]2[C@H]1C (stereo partly specified) | > 100 µM | > 100 µM | > 100 µM | > 100 µM | > 100 µM | > 100 µM | > 100 µM | > 100 µM | > 100 µM | > 100 µM | – | – | – | – | – | – | – | – | – | –
Oc1[nH]c2cc(Cl)ccc2c1/C=c1/ccc2c(c1)N=C(c1cc(F)cc(F)c1)N=2 | 19.9 µM | 5.29 µM | 3.17 µM | 8.16 µM | 17.9 µM | 27.4 µM | 3.3 µM | 6.28 µM | 7.59 µM | 18.8 µM | 2.24 µM | 1.17 µM | 0.741 µM | 3.29 µM | 6.06 µM | 1.41 µM | 2.38 µM | 5.53 µM | 4.99 µM | 1.68 µM
CC(=O)Oc1ccc(/C=N/NC(N)=S)nc1 | > 100 µM | > 100 µM | > 100 µM | > 100 µM | 26.8 µM | 43.5 µM | > 100 µM | > 100 µM | 23.4 µM | > 100 µM | 31 µM | 4.48 µM | 12.9 µM | 4.5 µM | 4.96 µM | 2.72 µM | 9.43 µM | 47.8 µM | 3.49 µM | 3.38 µM
O=S(=O)(c1ccc(O)c(C=Nc2ccc(Cl)cc2)c1)c1ccc(O)c(C=Nc2ccc(Cl)cc2)c1 | > 100 µM | > 100 µM | > 100 µM | > 100 µM | > 100 µM | > 100 µM | > 100 µM | > 100 µM | > 100 µM | > 100 µM | – | – | – | – | – | – | – | – | – | –
COc1cnc2cc(C(=O)O)c3ccccc3c2c1 | > 100 µM | > 100 µM | > 100 µM | > 100 µM | > 100 µM | > 100 µM | > 100 µM | > 100 µM | > 100 µM | > 100 µM | – | – | – | – | – | – | – | – | – | –
O=c1c2ccccc2oc2ccc(OCCCCCCN3CCCCCC3)cc12 | 13.2 µM | 4.05 µM | 5.16 µM | 20.7 µM | 17.5 µM | 3.68 µM | 16.1 µM | 5.78 µM | 3.04 µM | 17.3 µM | 1.93 µM | 2.13 µM | 4.29 µM | 4.29 µM | 1.93 µM | 4.09 µM | 2.24 µM | 3.94 µM | 3.68 µM | 1.68 µM
Cc1c(C(=O)CSc2nc3ccccc3[nH]2)c(=O)n(-c2ccccc2)n1C | > 100 µM | > 100 µM | > 100 µM | > 100 µM | > 100 µM | > 100 µM | > 100 µM | > 100 µM | > 100 µM | > 100 µM | – | – | – | – | – | – | – | – | – | –
COc1cccc(/C=C/C(=O)c2cc3c(N)c(C(=O)Nc4cccc5ccccc45)sc3nc2C)c1 | 4.36 µM | 34.2 µM | 1.6 µM | 4.9 µM | 2.78 µM | > 50 µM | 2.07 µM | 2.73 µM | 3.09 µM | > 50 µM | 1.71 µM | 0.619 µM | 0.953 µM | 1.05 µM | 1.96 µM | 0.892 µM | 0.461 µM | 1.78 µM | 1.23 µM | 1.21 µM
CN(C=O)/C=C/c1cc(O)ccc1O | 29.7 µM | 45.4 µM | 48.9 µM | 34.8 µM | > 71.4 µM | > 63.3 µM | 32.5 µM | 75.6 µM | > 66.9 µM | 54.1 µM | – | – | – | – | – | – | – | – | – | –
O=c1[nH]c2ccccc2n1-c1n[nH]c2ccccc12 | > 100 µM | > 100 µM | 67.5 µM | 58.2 µM | > 100 µM | 82.9 µM | > 100 µM | 64.6 µM | 35.9 µM | > 100 µM | 28.7 µM | 24.6 µM | 4.5 µM | 8.29 µM | 26.3 µM | 27.5 µM | 17.6 µM | 40.7 µM | 29.9 µM | 16.9 µM
Cc1cc(Cl)ccc1Nc1nc(C(F)(F)F)ccc1C(=O)N1CCN(c2cccc(Cl)c2)CC1 | > 100 µM | > 100 µM | > 100 µM | > 100 µM | > 100 µM | > 100 µM | > 100 µM | > 100 µM | > 100 µM | > 100 µM | > 100 µM | 37.3 µM | 73.4 µM | 1.78 µM | > 100 µM | 7.82 µM | 37.2 µM | > 100 µM | > 100 µM | 65.6 µM
C#CCN(Cc1ccc2nc(N)[nH]c(=O)c2c1)c1ccc(C(=O)NC(CCC(=O)O)C(=O)O)cc1 (stereo unspecified) | > 100 µM | > 100 µM | > 100 µM | > 100 µM | > 100 µM | > 100 µM | > 100 µM | > 100 µM | > 100 µM | > 100 µM | – | – | – | – | – | – | – | – | – | –
